Drawing on US20240228443A1, “NOVEL MANUFACTURING METHOD OF D[…] PRECURSORS THEREOF” (GlaxoSmithKline Intellectual Property (No.2) Limited, priority 2021, published 2024), this text covers solubility for one compound.

The data set is described as follows: Solubility by saturation of the solvent, filtration and determination of concentration in the supernatant. The format is physicochemical. The conditions noted are these: thermodynamic from solid. As for the experimental part:
The solubility of 5-acetyl-1,3-dicyclohexylpyrimidine-2,4,6(1H,3H,5H)-trione was measured in 29.5% v/v acetic anhydride-acetic acid (a mimic for the solvent composition at the end of Stage 1), acetic acid and water. The solubility was measured by saturation of the solvent with the component, filtration and determination of the component concentration in the supernatant.

Converted amounts (≈) assume the structure as drawn.

As a reminder, the solubility is how much of the substance goes into solution per volume. Consider `CC(=O)C1C(=O)N(C2CCCCC2)C(=O)N(C2CCCCC2)C1=O` [5-acetyl-1,3-dicyclohexylpyrimidine-2,4,6(1H,3H,5H)-trione], for which the solubility runs as follows: (organic solvent or mixture, in 29.5% v/v acetic anhydride-acetic acid at 15° C.) 43.7 mg/mL (≈ 131 mM); (organic solvent or mixture, in acetic acid at 20° C.) 62.3 mg/mL (≈ 186 mM); (in water at 25° C.) < 0.1 mg/mL.
